Laboratory results reported in patent publication US20080166396A1, “Boronate Medicaments Suitable for Short Duration Anticoagulation” (Trigen Holdings AG Clareville House, priority 2004, published 2008).
Structures can show the parent of a compound that is named as a salt. Marks after values point to notes of the source that are not given here.

Experiments:
[1] = Maximum aqueous solubility, salt shaken in water at 37° C., filtered, UV; assay type: physicochemical; details: 25 mg of dried salt shaken in water at 37° C.
[2] = Stability: HPLC assay before and after drying over phosphorus pentoxide for 1 week; assay type: physicochemical; details: listed as TRI 50c Lys salt; for Amount: 5 mg in 5 mL
Experimental: An assay of TRI 50c and its sodium and lysine salts before and after drying.
For sample analysis, 5 mg of dried and non-dried material was weighed in a 5 mL volumetric flask and dissolved in 1 mL acetonitrile and filled up with demineralised water to 5 mL.
The quantitative evaluation was performed using an HPLC-PDA method.

human α-thrombin = target: T1, human α-thrombin (Homo sapiens, UniProt P00734); details: reported by Deadman et al, J. Med. Chem. 1995; cited from earlier work
T1 construct: 50 μl of human α-thrombin (0.25 NIHμ/ml) was added

Thrombin Time (TT) = assay: Single oral doses of TGN 167 tablets in healthy male subjects; assay type: in vivo
Experimental: TGN 167 tablets described above were administered via the oral route to 10 healthy male subjects as single doses (randomised double blind placebo controlled study). The group consisted of 10 healthy male volunteers, 9 of whom received active compound and one of whom received placebo. An amendment was introduced for the last panel, allowing 15 subjects (instead of 9) to receive a 600 mg dose. The interval between each dose of TGN 167 was one week minimum. The allocation of the placebo was such that each volunteer would only receive placebo once during the course of the study.
Orally administered doses were: 75 mg (one tablet), 150 mg (two tablets), 300 mg (four tablets) and 600 mg (eight tablets).

[3] = Comparative storage stability of sodium and calcium salts (moisture-permeable packaging); assay type: physicochemical
Excerpt: In both studies the active pharmaceutical ingredient was stored in gray sealed double bags within a PE/PP screw cap closed cylinder.

[4] = Solubility of TRI 50c monosodium salt at different pH values / reconstitution; assay type: physicochemical
Excerpt: A first class of formulation, therefore, comprises particulate formulations, i.e. powders and granules, for oral administration after reconstitution into a liquid preparation, and preferably into a drinkable preparation. It is generally preferred for the liquid preparation to be a solution rather than a suspension and certain particulate formulations are for dissolving to form a drinking solution. The formulation may be for reconstitution into a suspension or more normally a solution having a volume of from about 50 ml to about 150 ml. The disclosure also contemplates reconstituted volumes of less than about 50 ml or of more than about 150 ml, e.g. of up to about 250 ml and more often of up to about 200 ml.
However, a solution with a pH of 9.5 will often be undesirably distasteful to drink. Accordingly, a pharmaceutically acceptable organic acid may be included in the particulate formulation in an amount selected to reduce the pH to a value at which the solution is more palatable but at which a solution of drinkable quantity (e.g. about 50 ml to about 150 ml) may be formed by reconstituting the particulate formulation. As the organic acid may be mentioned citric acid, tartaric acid or malic acid, for example. In many instances, citric acid is chosen.
In a first series of experiments, this amount of the salt was dissolved in 50 ml water to form a solution of approximately pH 9.5. Dilute aqueous HCl was added to determine how much the pH could be reduced before precipitation occurred.
In a second series of experiments, the same amount of the salt was dissolved in 150 ml water, and citric acid was added. […] Since acid solutions tend to be more palatable than alkaline ones, and citric acid is a common flavouring agent, this behaviour of the salt is highly beneficial. […] In general, it is contemplated that the boronate will be formulated to form a reconstituted solution having a pH of from 4 to 8, e.g. 4 to 7, optionally 5 to 6.

[5] = Excretion of administered dose as TRI 50c species; details: in vivo
[6] = dry (1 week over phosphorus pentoxide)

## COCCC[C@H](NC(=O)[C@@H]1CCCN1C(=O)[C@@H](Cc1ccccc1)NC(=O)OCc1ccccc1)B(O)O [Lithium Salt of TRI50C]
[1]
  observation on dissolution: left a white residue of undissolved material

## COCCC[C@H](NC(=O)[C@@H]1CCCN1C(=O)[C@@H](Cc1ccccc1)NC(=O)OCc1ccccc1)B(O)O [Lysine Salt of TRI50C]
[2]; [6]
  Amount: 813.3 µg/mL
  Purity: 90.17 % area
[2]; non-dried
  Amount: 809.8 µg/mL
  Purity: 92.25 % area

## CNC[C@H](O)[C@@H](O)[C@H](O)[C@H](O)CO.COCCC[C@H](NC(=O)[C@@H]1CCCN1C(=O)[C@@H](Cc1ccccc1)NC(=O)OCc1ccccc1)B(O)O [N-METHYL-D-GLUCAMINE SALT OF TRI50C]
[1]
  observation on dissolution: fully dissolve

## COCCC[C@H](NC(=O)[C@@H]1CCCN1C(=O)[C@@H](Cc1ccccc1)NC(=O)OCc1ccccc1)B([O-])O.[K+] [Potassium Salt of TRI50C]
[1]
  observation on dissolution: left a white residue of undissolved material

## COCCCC(NC(=O)C1CCCN1C(=O)C(Cc1ccccc1)NC(=O)OCc1ccccc1)B1OC(C)(C)C(C)(C)O1 [TRI 50b, Cbz-(R)-Phe-Pro-BoroMpg-OPinacol]
Human α-thrombin
  Ki: 7 nM

## COCCC[C@H](NC(=O)[C@@H]1CCCN1C(=O)[C@@H](Cc1ccccc1)NC(=O)OCc1ccccc1)B([O-])O.COCCC[C@H](NC(=O)[C@@H]1CCCN1C(=O)[C@@H](Cc1ccccc1)NC(=O)OCc1ccccc1)B([O-])O.[Ca+2] [TRI 50c calcium salt]
[1]
  observation on dissolution: left a white residue of undissolved material
Thrombin Time (TT); after oral administration
  time at which all TT had returned to baseline: 10 h
Thrombin Time (TT); oral, any dose, study period of 24 hours
  adverse clinical events (general or cardiovascular): no adverse clinical events
[3]; T = 0, LOD = loss on drying
  Tri50c (w/w %, LOD corrected): (99.7) w/w %
[3]; T = 1, 25° C./60% r.h.
  Tri50c (w/w %, LOD corrected): (101.5) w/w %
[3]; T = 1, 40° C./75% r.h.
  Tri50c (w/w %, LOD corrected): (100.6) w/w %
[3]; T = 1, −20° C.
  Tri50c (w/w %, LOD corrected): (102.7) ^x w/w %
[3]; T = 3, 25° C./60% r.h.
  Tri50c (w/w %, LOD corrected): (104.3) w/w %
[3]; T = 3, 40° C./75% r.h.
  Tri50c (w/w %, LOD corrected): (82.0) w/w %
[3]; T = 3, −20° C.
  Tri50c (w/w %, LOD corrected): (103.0) ^x w/w %
[3]; T = 12, 25° C./60% r.h.
  Tri50c (w/w %, LOD corrected): (94.8 w/w) w/w %

## COCCC[C@H](NC(=O)[C@@H]1CCCN1C(=O)[C@@H](Cc1ccccc1)NC(=O)OCc1ccccc1)B(O)O.[Na+] [TRI 50c monosodium salt, Cbz-(R)-Phe-(S)-Pro-(R)-Mpg-B(OH)2 monosodium salt]
[1]
  observation on dissolution: left a white residue of undissolved material
[4]; at a pH of about 9.5
  concentration of boronate salt solution formed: up to 600 mg/ml
[4]; salt equivalent to 600 mg TRI 50c dissolved in 10 ml water
  pH of solution: 9.88
[4]; salt equivalent to 600 mg TRI 50c dissolved in 50 ml water
  pH of solution: ~9.5
[3]; T = 0, LOD = loss on drying
  Tri50c (w/w %, LOD corrected): 101.5 w/w %
[3]; T = 1, 25° C./60% r.h.
  Tri50c (w/w %, LOD corrected): 103.6 w/w %
[3]; T = 1, 40° C./75% r.h.
  Tri50c (w/w %, LOD corrected): 94.5 w/w %
[3]; T = 1, −20° C.
  Tri50c (w/w %, LOD corrected): 104.3 w/w %
[3]; T = 3, 25° C./60% r.h.
  Tri50c (w/w %, LOD corrected): 100.4 w/w %
[3]; T = 3, 40° C./75% r.h.
  Tri50c (w/w %, LOD corrected): 52.2 w/w %
[3]; T = 12, 25° C./60% r.h.
  Tri50c (w/w %, LOD corrected): 71.2 w/w %
[5]
  administered dose excreted as TRI 50c species: 14%
